# Values quoted from earlier work, collected in patent US6379294B1, “Process for preparing esterquats” (Akzo Nobel N.V., priority 1999, dated 2002).
# Conditions: salts of the tertiary amines as such; from Klomp, Kruka, Reijnhart, IBC Conference 1998
row,Structure (SMILES),Inhibition of the growth of gas hydrates
1,CCCCCCCCCCN(CCCC)CCCC [di-n-butyl decyl amine],inhibited the growth of gas hydrates
2,CCCCN(CCCC)CCCC [tri-n-butyl amine],inhibited the growth of gas hydrates
